{"source": "patent US12390486B2", "about": "“Method for treating diastolic heart failure by inhibiting galectin-3” (Henry Ford Health System, priority 2012, dated 2025)", "tested_on": "dogs with microembolization-induced HF", "assay": "LacNAc in dogs with microembolization-induced HF (Example 2)", "format": "in vivo, dog", "details": "for VFIF (LV Volume fraction of interstitial fibrosis) / ODD (Oxygen diffusion distance) / VFRF (LV volume fraction of replacement fibrosis) / MCSA (myocyte cross-sectional area) / Cap/mm^2 (Capillary density) / Cardiac Output / PE/PA / Ei/Ai / Stroke Volume / Left Ventricular Fractional Area of Shortening / Left Ventricular Ejection Fraction / Left Ventricular End-Systolic Volume / Left Ventricular End-Diastolic Volume / Diastolic Aortic Pressure / Mean Aortic Pressure / Heart Rate / Systolic Aortic Pressure / DT / Systemic Vascular Resistance: individual dogs and Mean (n=3); for VFIF (LV Volume fraction of interstitial fibrosis): historical controls mean 12.95; for ODD (Oxygen diffusion distance): historical controls mean 13.10; for VFRF (LV volume fraction of replacement fibrosis): historical controls mean 13.8; for MCSA (myocyte cross-sectional area): historical controls mean 575; for Cap/mm^2 (Capillary density): historical controls mean 2063; for Cardiac Output / PE/PA / Ei/Ai / Stroke Volume / Left Ventricular Fractional Area of Shortening / Left Ventricular Ejection Fraction / Left Ventricular End-Systolic Volume / Left Ventricular End-Diastolic Volume / Diastolic Aortic Pressure / Mean Aortic Pressure / Heart Rate / Systolic Aortic Pressure / DT / Systemic Vascular Resistance: 115 mg LacNAc oral daily, 12 weeks; for Cardiac Output: PRE mean 1.41; for PE/PA: PRE mean 1.80; for Ei/Ai: PRE mean 2.98; for Stroke Volume: PRE mean 17; for Left Ventricular Fractional Area of Shortening: PRE mean 28.3; for Left Ventricular Ejection Fraction: PRE mean 30; for Left Ventricular End-Systolic Volume: PRE mean 39; for Left Ventricular End-Diastolic Volume: PRE mean 56; for Diastolic Aortic Pressure: PRE mean 62; for Mean Aortic Pressure: PRE mean 73; for Heart Rate: PRE mean 84; for Systolic Aortic Pressure: PRE mean 87; for DT: PRE mean 131; for Systemic Vascular Resistance: PRE mean 4209", "procedure": "In this dog model of HF, the development of the disease is associated with an increase in the volume fraction of interstitial fibrosis in the left ventricular wall from a normal level of 3.5% (connective tissue) to as high as 25%. Dogs were treated for 3 months with daily oral administration of 115 mg of LacNAc. […] This finding is similar to that observed with MCP (Example 1), as illustrated in FIG. 2. […] All of these findings support a marked improvement of LV function and cellular remodeling sought for treatment of HFpEF.", "key": {"[1]": {"details": "115 mg LacNAc oral daily for 3 months, 3 dogs"}, "[2]": {"details": "115 mg LacNAc oral daily for 3 months"}, "[3]": {"details": "115 mg LacNAc oral daily for 3 months, mean"}}, "note": "Several values for one entry are separate records, joined by “and”; a condition that tells them apart may be missing. Identical values can stand only once."}
{"smiles": "CC(=O)N[C@H]1C(O)O[C@H](CO)[C@@H](O[C@@H]2O[C@H](CO)[C@H](O)[C@H](O)[C@H]2O)[C@@H]1O", "note": "(stereo partly drawn) [LacNAc, N-acetyl-D-lactosamine]", "values": [{"measurement": "LV ejection fraction", "setting": "[1]", "value": "improved LV ejection fraction"}, {"measurement": "LV relaxation (Ei/Ai, PE/PA and DT)", "setting": "[1]", "value": "improved LV relaxation"}, {"measurement": "capillary density", "setting": "[1]", "value": "increased capillary density"}, {"measurement": "myocyte hypertrophy", "setting": "[1]", "value": "decreased myocyte hypertrophy"}, {"measurement": "oxygen diffusion", "setting": "[1]", "value": "increased oxygen diffusion"}, {"measurement": "stroke volume and cardiac output", "setting": "[1]", "value": "increased stroke volume and cardiac output"}, {"measurement": "reduction of reactive interstitial fibrosis", "setting": "115 mg LacNAc oral daily for 3 months, 3 dogs, compared to historical untreated controls matched for LV ejection fraction, gender, duration of heart failure", "value": "~57", "unit": "%"}, {"measurement": "VFIF (LV Volume fraction of interstitial fibrosis)", "setting": "[2]", "value": "5.27% (2×) and 6.07%"}, {"measurement": "VFIF (LV Volume fraction of interstitial fibrosis)", "setting": "[3]", "value": 5.54, "unit": "%"}, {"measurement": "ODD (Oxygen diffusion distance)", "setting": "[2]", "value": "9.18 μm and 9.48 μm and 9.11 μm"}, {"measurement": "ODD (Oxygen diffusion distance)", "setting": "[3]", "value": 9.26, "unit": "μm"}, {"measurement": "VFRF (LV volume fraction of replacement fibrosis)", "setting": "[2]", "value": "10.4% and 13.6% and 13.8%"}, {"measurement": "VFRF (LV volume fraction of replacement fibrosis)", "setting": "[3]", "value": 12.6, "unit": "%"}, {"measurement": "MCSA (myocyte cross-sectional area)", "setting": "[2]", "value": "373 μm^2 and 393 μm^2 and 418 μm^2"}, {"measurement": "MCSA (myocyte cross-sectional area)", "setting": "[3]", "value": 395, "unit": "μm^2"}, {"measurement": "Cap/mm^2 (Capillary density)", "setting": "[2]", "value": "2989 Cap/mm^2 and 2977 Cap/mm^2 and 3042 Cap/mm^2"}, {"measurement": "Cap/mm^2 (Capillary density)", "setting": "[3]", "value": 3002, "unit": "Cap/mm^2"}, {"measurement": "Cardiac Output", "value": "2.02 L/min and 1.80 L/min and 1.67 L/min"}, {"measurement": "Cardiac Output", "setting": "mean", "value": 1.83, "unit": "L/min"}, {"measurement": "PE/PA", "value": "1.82 and 2.52 and 1.84"}, {"measurement": "PE/PA", "setting": "mean", "value": 2.06}, {"measurement": "Ei/Ai", "value": "4.26 and 4.43 and 3.25"}, {"measurement": "Ei/Ai", "setting": "mean", "value": 3.98}, {"measurement": "Stroke Volume", "value": "24 mL and 20 mL and 19 mL"}, {"measurement": "Stroke Volume", "setting": "mean", "value": 21, "unit": "mL"}, {"measurement": "Left Ventricular Fractional Area of Shortening", "value": "31% and 41% and 29%"}, {"measurement": "Left Ventricular Fractional Area of Shortening", "setting": "mean", "value": 33.7, "unit": "%"}, {"measurement": "Left Ventricular Ejection Fraction", "value": "42% and 38% and 31%"}, {"measurement": "Left Ventricular Ejection Fraction", "setting": "mean", "value": 37, "unit": "%"}, {"measurement": "Left Ventricular End-Systolic Volume", "value": "33 ml (2×) and 43 ml"}, {"measurement": "Left Ventricular End-Systolic Volume", "setting": "mean", "value": 36, "unit": "mL"}, {"measurement": "Left Ventricular End-Diastolic Volume", "value": "57 mL and 53 mL and 62 mL"}, {"measurement": "Left Ventricular End-Diastolic Volume", "setting": "mean", "value": 57, "unit": "mL"}, {"measurement": "Diastolic Aortic Pressure", "value": "60 mmHg and 67 mmHg and 62 mmHg"}, {"measurement": "Diastolic Aortic Pressure", "setting": "mean", "value": 63, "unit": "mmHg"}, {"measurement": "Mean Aortic Pressure", "value": "72 mmHg and 76 mmHg and 73 mmHg"}, {"measurement": "Mean Aortic Pressure", "setting": "mean", "value": 74, "unit": "mmHg"}, {"measurement": "Heart Rate", "value": "84 beats/min and 90 beats/min and 88 beats/min"}, {"measurement": "Heart Rate", "setting": "mean", "value": 87, "unit": "beats/min"}, {"measurement": "Systolic Aortic Pressure", "value": "88 mmHg (2×) and 90 mmHg"}, {"measurement": "Systolic Aortic Pressure", "setting": "mean", "value": 89, "unit": "mmHg"}, {"measurement": "DT", "value": "162 msec (2×) and 115 msec"}, {"measurement": "DT", "setting": "mean", "value": 146, "unit": "ms"}, {"measurement": "Systemic Vascular Resistance", "value": "2857 dynes-sec-cm^-5 and 3378 dynes-sec-cm^-5 and 3493 dynes-sec-cm^-5"}, {"measurement": "Systemic Vascular Resistance", "setting": "mean", "value": 3243, "unit": "dynes-sec-cm^-5"}]}
